Assay results taken from patent US20190290728A1, “METHODS RELATED TO BREAKING T CELL EXHAUSTION” (CHILDREN'S MEDICAL CENTER CORPORATION, priority 2016, published 2019).

System: Jurkat cells expressing TMEM16F-RFP
Experiment: TIRF live imaging of TMEM16F-positive vesicle movement at the TCR activation site
Type: cell-based
Conditions: Jurkat cells pretreated with 1 μM inhibitor for 30 min, stimulated on αCD3-coated coverslips, TIRF microscopy (FIGS. 7D, 7E)
Source text: TMEM16F is recruited to the immunological synapse and resides in late endosomes. To elucidate the molecular mechanism how TMEM16F controls T cell activation, its cellular localization and function were tracked. To this end, T cells transduced with fluorescent TMEM16F were cocultured with antigen-presenting B cells. […] Of note, TMEM16F appeared mainly in intracellular structures instead of the plasma membrane (FIG. 7A). […] In order to test the mechanics of TMEM16F-positive vesicle movement, TIRF live imaging was performed while modulating the functions of the cytoskeleton. […] By contrast, treatment with nocodazole that disrupts the microtubule network reduced migration of TMEM16F vesicles, indicating the movement of TMEM16F was largely mediated by microtubules but not actin (FIGS. 7D and 7E).
TIRF Microscopy. Sample preparation for TIRF microscopy was performed as previously reported with minor modifications (Bunnell et al., 2003). […]
Image Processing. […] The number of TMEM16F-positive spots was plotted using Prism 6.0™ Quantifications of LBPA-positive vesicles, LAT-GFP, and SH2-ZAP70-mCherry were done similarly. Intensity of SH2-ZAP70-mCherry was determined using intensity vs. time plug-in. For the colocalization of TMEM16F and Rab proteins, fluorescence intensity for each protein was measured on a line manually drawn along TMEM16F-positive vesicles, and values (pixel) were plotted. […]

| SMILES | recruitment of TMEM16F to the T cell activation site / migration of TMEM16F vesicles |
| --- | --- |
| Cc1ccc2c(c1)C(=O)C1(O)CCN(c3ccccc3)C1=N2 (centres unmarked) [blebbistatin] | did not alter |
| COC(=O)Nc1nc2ccc(C(=O)c3cccs3)cc2[nH]1 [nocodazole] | reduced |
